How the values were obtained:
[1] = target: T1, Prostaglandin G/H synthase 1 (Ovis aries, UniProt P05979); assay: IC50 value against ovine Prostaglandin G/H synthase 1
T1 sequence (P05979 whole entry): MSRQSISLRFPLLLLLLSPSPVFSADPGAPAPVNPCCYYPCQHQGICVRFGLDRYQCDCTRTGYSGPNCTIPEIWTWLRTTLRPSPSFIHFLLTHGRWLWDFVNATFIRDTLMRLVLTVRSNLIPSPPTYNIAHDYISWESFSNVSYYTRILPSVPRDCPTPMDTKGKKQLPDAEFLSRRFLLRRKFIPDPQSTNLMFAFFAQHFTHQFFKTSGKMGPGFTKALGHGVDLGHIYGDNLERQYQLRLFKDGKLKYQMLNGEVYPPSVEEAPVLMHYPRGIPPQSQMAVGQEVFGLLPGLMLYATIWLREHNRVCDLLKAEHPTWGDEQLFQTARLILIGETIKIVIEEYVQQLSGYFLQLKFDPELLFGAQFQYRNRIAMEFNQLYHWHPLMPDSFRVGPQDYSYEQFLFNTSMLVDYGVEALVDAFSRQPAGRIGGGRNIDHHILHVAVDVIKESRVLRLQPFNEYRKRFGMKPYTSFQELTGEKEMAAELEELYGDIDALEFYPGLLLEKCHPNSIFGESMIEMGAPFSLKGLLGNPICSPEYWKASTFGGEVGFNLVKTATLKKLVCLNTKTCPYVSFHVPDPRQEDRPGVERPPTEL

[2] = target: T2, Prostaglandin G/H synthase 2 (Homo sapiens, UniProt P35354); assay: Inhibition of recombinant human prostaglandin G/H synthase 2 (COX-2)
T2 sequence (P35354 whole entry): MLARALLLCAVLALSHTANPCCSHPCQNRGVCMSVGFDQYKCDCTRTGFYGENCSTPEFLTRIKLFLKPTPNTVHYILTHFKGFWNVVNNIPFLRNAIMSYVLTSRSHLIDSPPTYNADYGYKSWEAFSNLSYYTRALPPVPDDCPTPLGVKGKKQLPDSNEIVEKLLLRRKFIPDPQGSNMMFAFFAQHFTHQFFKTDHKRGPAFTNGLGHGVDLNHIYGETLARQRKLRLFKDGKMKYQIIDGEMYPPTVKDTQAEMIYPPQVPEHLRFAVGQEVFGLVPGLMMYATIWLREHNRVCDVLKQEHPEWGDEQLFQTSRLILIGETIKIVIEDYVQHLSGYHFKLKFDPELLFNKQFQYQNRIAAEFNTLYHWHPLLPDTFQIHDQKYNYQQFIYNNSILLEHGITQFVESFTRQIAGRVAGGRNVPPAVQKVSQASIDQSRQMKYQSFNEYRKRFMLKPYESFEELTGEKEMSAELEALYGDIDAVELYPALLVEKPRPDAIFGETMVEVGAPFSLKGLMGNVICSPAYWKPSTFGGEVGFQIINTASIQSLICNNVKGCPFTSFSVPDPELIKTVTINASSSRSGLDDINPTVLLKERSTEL

[3] = target: Prostaglandin G/H synthase 1 (Homo sapiens, UniProt P23219); assay: IC50 value against Prostaglandin G/H synthase 1 of human platelet rich plasma; type: cell-free
[4] = target: T3, Prostaglandin G/H synthase 2 (Mus musculus, UniProt Q05769)
T3 sequence (Q05769 whole entry): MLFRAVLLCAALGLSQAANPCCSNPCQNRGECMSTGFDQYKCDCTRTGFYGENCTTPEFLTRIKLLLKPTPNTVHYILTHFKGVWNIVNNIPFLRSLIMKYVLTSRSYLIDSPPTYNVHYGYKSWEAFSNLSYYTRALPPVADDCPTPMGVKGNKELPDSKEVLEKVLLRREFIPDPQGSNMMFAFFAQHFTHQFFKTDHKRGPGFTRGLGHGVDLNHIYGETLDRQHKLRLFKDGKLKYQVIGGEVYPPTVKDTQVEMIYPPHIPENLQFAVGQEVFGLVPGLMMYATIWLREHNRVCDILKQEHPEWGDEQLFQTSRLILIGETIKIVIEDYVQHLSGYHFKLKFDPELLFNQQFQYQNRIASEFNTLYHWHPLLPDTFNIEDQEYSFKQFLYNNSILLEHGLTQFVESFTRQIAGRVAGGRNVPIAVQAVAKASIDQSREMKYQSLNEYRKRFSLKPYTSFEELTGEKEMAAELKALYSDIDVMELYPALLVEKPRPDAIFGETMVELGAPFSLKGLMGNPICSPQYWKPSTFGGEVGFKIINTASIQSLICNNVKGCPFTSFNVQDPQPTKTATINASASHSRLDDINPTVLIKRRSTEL

[5] = target: T3, Prostaglandin G/H synthase 2; assay: IC50 value against Prostaglandin G/H synthase 2 of murine J774A.1 cell line
[6] = species on record: Rattus norvegicus; assay: Lesion frequency was measured in rats.; type: functional
[7] = species on record: Rattus norvegicus; assay: Percentage of gastric damage was measured in rats.; type: functional, Stomach
[8] = species on record: Rattus norvegicus; assay: ED50 was measured by CFE assay method.; type: functional
[9] = species on record: Rattus norvegicus; assay: ED50 was measured by hyperalgesia assay method.; type: functional
[10] = species on record: Rattus norvegicus; assay: Percentage inhibition of the prostaglandin synthesis was measured in rats.; type: functional

Sequence of Prostaglandin G/H synthase 1 (Homo sapiens, UniProt P23219) (P23219 whole entry): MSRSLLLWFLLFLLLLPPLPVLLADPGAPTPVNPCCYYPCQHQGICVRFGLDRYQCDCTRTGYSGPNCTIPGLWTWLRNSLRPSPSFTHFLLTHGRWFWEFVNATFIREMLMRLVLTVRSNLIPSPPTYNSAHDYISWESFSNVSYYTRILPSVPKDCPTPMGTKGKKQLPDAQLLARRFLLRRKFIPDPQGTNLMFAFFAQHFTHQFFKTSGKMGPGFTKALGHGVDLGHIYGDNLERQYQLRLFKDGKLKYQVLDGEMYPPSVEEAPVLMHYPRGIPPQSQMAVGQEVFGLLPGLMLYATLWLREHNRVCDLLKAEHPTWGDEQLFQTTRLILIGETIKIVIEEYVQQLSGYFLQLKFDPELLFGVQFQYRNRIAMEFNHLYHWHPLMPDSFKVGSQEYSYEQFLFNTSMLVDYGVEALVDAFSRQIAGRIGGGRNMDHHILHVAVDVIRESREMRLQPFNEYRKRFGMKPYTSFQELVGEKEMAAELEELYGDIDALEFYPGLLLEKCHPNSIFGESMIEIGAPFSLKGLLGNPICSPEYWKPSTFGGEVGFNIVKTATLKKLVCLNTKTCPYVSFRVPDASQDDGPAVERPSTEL

Structure (SMILES)	IC50 [1] [µM]	IC50 [2] [µM]	IC50 [3] [µM]	IC50 [4] [µM]	IC50 [5]	Lesion frequency [6] [%]	Damaged area [7] [%]	ED50 [8] [mg/kg]	ED50 [9] [mg/kg]	Inhibition [10] [%]
COc1nnc(-c2cc(C(C)(C)C)c(O)c(C(C)(C)C)c2)s1	2.6	3	0.2							
CC(=O)Nc1nc(-c2cc(C(C)(C)C)c(O)c(C(C)(C)C)c2)ns1	> 20	> 20								
CCN(CC)CCSc1nnc(-c2cc(C(C)(C)C)c(O)c(C(C)(C)C)c2)s1	> 20	19	> 20	> 20						
CC(C)(C)c1cc(-c2nnc(S)s2)cc(C(C)(C)C)c1O	20		> 20	0.35						
CSc1nnc(-c2cc(C(C)(C)C)c(O)c(C(C)(C)C)c2)o1	12		1.2	0.14						
CC(C)(C)c1cc(-c2nnc(O)s2)cc(C(C)(C)C)c1O	> 20	> 20	4.1	0.24						
CSc1nnc(-c2cc(C(C)(C)C)c(O)c(C(C)(C)C)c2)s1	0.51	0.15	0.18	0.009						
CNc1nnc(-c2cc(C(C)(C)C)c(O)c(C(C)(C)C)c2)s1	0.52	9.6	0.3	0.69						
CCCSc1nnc(-c2cc(C(C)(C)C)c(O)c(C(C)(C)C)c2)s1	> 20	100	4.1		Not Active					
CCSc1nnc(-c2cc(C(C)(C)C)c(O)c(C(C)(C)C)c2)o1	> 20	6.5	1.9	0.015						
CS(=O)(=O)Nc1ccc([N+](=O)[O-])cc1OC1CCCCC1 [NS-398]						0	0	0.61	7.4	30.7
CC(C)(C)c1cc(-c2nsc(NS(C)(=O)=O)n2)cc(C(C)(C)C)c1O	> 20	> 20								
CSc1nnc(-c2nc(C(C)(C)C)c(O)c(C(C)(C)C)n2)s1	0.097		0.2	0.026						
CC(C)(C)c1cc(-c2nnc(SCc3ccccc3)s2)cc(C(C)(C)C)c1O	> 20	> 20	> 20	> 20						
COc1nc(-c2cc(C(C)(C)C)c(O)c(C(C)(C)C)c2)ns1	24	100								
CCSc1nnc(-c2cc(C(C)C)c(O)c(C(C)C)c2)s1	> 20	> 20	> 20	1.3						
COc1c(C(C)(C)C)cc(-c2nnc(SC)s2)cc1C(C)(C)C	5.8	0.34	0.77	0.012						
CCSc1nnc(-c2cc(C(C)(C)C)c(O)c(C(C)(C)C)c2)s1.C[N+](C)(C)CC[O-]						12.5	0.05	7.1		77.4
CC(C)(C)c1cc(-c2nnc(O)o2)cc(C(C)(C)C)c1O	> 20	> 20	3.2	> 20						
CC(C)(C)c1cc(-c2nsc(N)n2)cc(C(C)(C)C)c1O	> 20	> 20								
CC(C)(C)c1cc(-c2nnc(SCCN)s2)cc(C(C)(C)C)c1O	36	41	> 20		Not Active					
CS(=O)(=O)c1ccc(-n2nc(C(F)(F)F)cc2-c2ccc(F)cc2)cc1 [SC-58125]						0	0	> 30	0.3	-1.58

Structure (SMILES)	IC50 [1] [µM]	IC50 [2] [µM]	IC50 [3] [µM]	IC50 [4] [µM]	IC50 [5]	Lesion frequency [6] [%]	Damaged area [7] [%]	ED50 [8] [mg/kg]	ED50 [9] [mg/kg]	Inhibition [10] [%]
CC(C)Oc1nnc(-c2cc(C(C)(C)C)c(O)c(C(C)(C)C)c2)s1	> 20	> 20	4.5		Not Active					
CCSc1nnc(-c2cc(C(C)(C)C)c(O)c(C(C)(C)C)c2)s1	100	0.14	3.1	0.18						
CCCSc1nnc(-c2cc(C(C)(C)C)c(O)c(C(C)(C)C)c2)o1	> 20	> 20	1.9		Not Active					
CCOc1nnc(-c2cc(C(C)(C)C)c(O)c(C(C)(C)C)c2)s1	3.4	6.1	1.2	0.07						
CC(C)(C)c1cc(-c2nsc(N=C(N)N)n2)cc(C(C)(C)C)c1O	24	27	1.7	> 20						
CC(C)Sc1nnc(-c2cc(C(C)(C)C)c(O)c(C(C)(C)C)c2)s1	> 20	> 20	13.6	8.5						
COC(=O)CCSc1nnc(-c2cc(C(C)(C)C)c(O)c(C(C)(C)C)c2)s1	> 20	> 20	9.9		Not Active					
CC(C)(C)c1cc(-c2nnc(NC#N)o2)cc(C(C)(C)C)c1O		11	5.8	0.39						
CC(C)(C)c1cc(-c2nnc(N=C(N)N)s2)cc(C(C)(C)C)c1O	88	17	2.8	0.21						
CC(C)(C)c1cc(-c2nc(=O)s[nH]2)cc(C(C)(C)C)c1O	83	1.1	0.43	0.018						
CC(C)(C)c1cc(-c2nnc(NN)s2)cc(C(C)(C)C)c1O	17	1.3	3.2	3.7						
C[S+]([O-])c1nnc(-c2cc(C(C)(C)C)c(O)c(C(C)(C)C)c2)s1 (stereo not drawn)	> 20	> 20	> 20							
CC(C)(C)c1cc(-c2nnc(SCC(F)(F)F)s2)cc(C(C)(C)C)c1O	> 20	> 20	> 20		Not Active					
CC(C)(C)c1cc(-c2nnc(S)o2)cc(C(C)(C)C)c1O	> 20	47	> 20	0.92						
CC(C)(C)c1cc(-c2nnc(SCCC(=O)O)s2)cc(C(C)(C)C)c1O	> 20	> 20	> 20		Not Active					
COc1c(C(C)(C)C)cc(-c2nnc(S)s2)cc1C(C)(C)C	> 20	1.5	> 20	0.3						
CCCSc1nnc(-c2cc(C(C)C)c(O)c(C(C)C)c2)s1	> 20	> 20	> 20	1.5						
CC(C)Sc1nnc(-c2cc(C(C)C)c(O)c(C(C)C)c2)s1	> 20	> 20								
CC(C)(C)c1cc(-c2noc(NC#N)n2)cc(C(C)(C)C)c1O	51	0.064	1.2	1.4						
CCCOc1nnc(-c2cc(C(C)(C)C)c(O)c(C(C)(C)C)c2)s1	> 20	> 20	3.6		Not Active					
CC[S+]([O-])c1nnc(-c2cc(C(C)(C)C)c(O)c(C(C)(C)C)c2)s1 (stereo not drawn)	> 20	> 20	14.6	0.23						

From ChEMBL document CHEMBL1132622, “Synthesis, structure-activity relationships, and in vivo evaluations of substituted di-tert-butylphenols as a novel class of potent, selective, and orally active cyclooxygenase-2 inhibitors. 2. 1,3,4- and 1,2,4-thiadiazole series” (J Med Chem, 1999)
